We go through seven compounds from ChEMBL document CHEMBL1201862, “PubChem BioAssay data set” (2004).

Calls of active or inactive are those of the source. Bounds are passed on as bounds.

The target of data set [1] is T1, G-protein coupled receptor 35 (Homo sapiens, UniProt Q9HC97). The experiment in a line: inhibition of zaprinast-stimulated GPR35 beta-arrestin translocation – imaging, U2OS, beta-arrestin-GFP, zaprinast agonist, primary screen (AID 2058).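 Also: antagonist potency meaning inhibition of agonist-induced arrestin redistribution.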 In kind it is functional.
T1 sequence (Q9HC97 whole entry): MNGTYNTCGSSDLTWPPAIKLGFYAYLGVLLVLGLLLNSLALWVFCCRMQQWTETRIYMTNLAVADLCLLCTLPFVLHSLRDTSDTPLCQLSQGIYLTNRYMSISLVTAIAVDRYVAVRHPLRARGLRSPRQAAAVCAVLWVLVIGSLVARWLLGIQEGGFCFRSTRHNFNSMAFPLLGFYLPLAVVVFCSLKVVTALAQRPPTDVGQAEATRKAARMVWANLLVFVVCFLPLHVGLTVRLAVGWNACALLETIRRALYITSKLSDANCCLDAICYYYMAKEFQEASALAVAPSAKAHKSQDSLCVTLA
In data set [2] the target is T1, G-protein coupled receptor 35. The experiment in a line: SAR Analysis for the identification of Selective Antagonists of ERK1/2 Activity in GPR35-Overexpressing U2OS Cells. [Related pubchem assays: 2079, 2058 ]. Type of data set: functional, cell-based.
Data set [3] in a line: microbe, parasite or virus in culture. The following applies: Mycobacterium tuberculosis. Type of data set: functional.
Data set [4] can be described thus: viability of PTEN-deleted HCT116 cells – cell-based, HCT116 PTEN knockout, dose response (AID 1047).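 Also: HCT116 colon tumor cells with PTEN knocked out; cells exposed to compound for 60 hours before readout; potency for loss of cell viability measured by luminescence.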 Type of data set: functional.
A short description of data set [5]: viability of HCT116 lacking mutant beta-catenin – cell-based, human colon tumor, dose response (AID 1045).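 Also: HCT116 colon tumor cells with beta catenin knocked out; cells exposed to compound for 60 hours.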 In kind it is functional.
The target of data set [6] is G-protein coupled receptor 55 (Homo sapiens, UniProt Q9Y2T6). The experiment in a line: blockers of GPR55 signalling, imaged – imaging, image-based, counter-screen for GPR35 antagonist project, SAR follow-up (AID 2397). In kind it is functional.
Data set [7] has as its target T2, Beta-2 adrenergic receptor (Homo sapiens, UniProt P07550). In words: ADRB2 activation measured by internalization – cell-based, FAP fluorogen, flow cytometry, cherry pick 1, dose response (AID 588763). Type of data set: functional.
Data set [8] deals with T2, Beta-2 adrenergic receptor. In words: Dose response for HTS for Beta-2AR agonists via FAP method from Powderset3. Type of data set: functional.
For data set [9], the target named is T3, Delta-type opioid receptor (Homo sapiens, UniProt P41143). The experiment in a line: HTS Image-Based Screen for Antagonists of the DOR Receptor. [Related pubchem assays (depositor defined):AID1777, AID1785, AID1786, AID2133]. In kind it is functional.
T3 sequence (P41143 whole entry): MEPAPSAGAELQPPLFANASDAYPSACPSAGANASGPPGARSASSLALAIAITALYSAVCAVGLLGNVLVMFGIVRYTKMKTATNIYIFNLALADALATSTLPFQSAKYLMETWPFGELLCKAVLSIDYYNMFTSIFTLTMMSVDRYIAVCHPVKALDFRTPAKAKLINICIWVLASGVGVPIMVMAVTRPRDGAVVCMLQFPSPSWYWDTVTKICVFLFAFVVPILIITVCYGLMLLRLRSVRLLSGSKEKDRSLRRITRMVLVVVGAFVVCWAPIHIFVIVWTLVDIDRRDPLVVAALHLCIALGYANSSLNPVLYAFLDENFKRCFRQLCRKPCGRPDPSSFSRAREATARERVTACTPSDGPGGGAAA
A further data set concerns the target Mu-type opioid receptor (Homo sapiens, UniProt P35372). In words: HTS Image-Based Screen for Agonists of the MOR Receptor. [Related pubchem assays (depositor defined):AID1777, AID1785, AID1786, AID2133]. Type of data set: functional.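 Also: imaging of beta-arrestin GFP recruitment into spots after receptor activation.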
Data set [10] addresses T3, Delta-type opioid receptor. The experiment in a line: HTS Image-Based Screen for Agonists of the DOR Receptor. [Related pubchem assays (depositor defined):AID1777, AID1786, AID2133]. Type of data set: functional.
Data set [11] has as its target T4, Kappa-type opioid receptor (Homo sapiens, UniProt P41145). Type of data set: functional.
Data set [12] addresses T4, Kappa-type opioid receptor. Type of data set: functional. The source holds these as a separate data set.
The target of data set [13] is T5, Short transient receptor potential channel 4 (Mus musculus, UniProt Q9QUQ5).
T5 sequence (Q9QUQ5 whole entry): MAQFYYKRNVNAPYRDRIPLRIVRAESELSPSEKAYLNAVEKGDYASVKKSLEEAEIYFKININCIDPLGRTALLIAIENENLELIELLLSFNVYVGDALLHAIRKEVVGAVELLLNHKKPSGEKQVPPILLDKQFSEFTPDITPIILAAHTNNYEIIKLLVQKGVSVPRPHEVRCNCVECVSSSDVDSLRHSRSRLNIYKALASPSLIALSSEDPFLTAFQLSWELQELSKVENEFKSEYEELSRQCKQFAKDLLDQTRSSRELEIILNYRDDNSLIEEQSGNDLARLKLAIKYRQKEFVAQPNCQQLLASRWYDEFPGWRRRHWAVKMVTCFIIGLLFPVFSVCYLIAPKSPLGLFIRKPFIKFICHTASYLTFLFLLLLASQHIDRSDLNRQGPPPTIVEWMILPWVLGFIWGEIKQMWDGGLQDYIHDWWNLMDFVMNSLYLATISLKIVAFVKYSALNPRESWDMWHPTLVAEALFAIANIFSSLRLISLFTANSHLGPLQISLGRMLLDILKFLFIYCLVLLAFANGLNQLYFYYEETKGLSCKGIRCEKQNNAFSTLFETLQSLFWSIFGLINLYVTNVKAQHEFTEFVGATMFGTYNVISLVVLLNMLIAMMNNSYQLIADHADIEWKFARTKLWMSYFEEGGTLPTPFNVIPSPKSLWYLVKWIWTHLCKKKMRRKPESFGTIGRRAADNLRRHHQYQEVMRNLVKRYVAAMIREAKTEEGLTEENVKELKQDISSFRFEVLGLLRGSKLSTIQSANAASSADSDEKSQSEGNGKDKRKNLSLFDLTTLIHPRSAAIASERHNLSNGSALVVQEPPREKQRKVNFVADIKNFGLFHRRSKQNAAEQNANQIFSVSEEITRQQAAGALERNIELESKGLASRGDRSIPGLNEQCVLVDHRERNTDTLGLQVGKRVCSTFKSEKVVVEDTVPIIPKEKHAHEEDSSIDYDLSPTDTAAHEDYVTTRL
The experiment in a line: block of DAMGO-driven TRPC4 calcium entry – cell-based, HEK293 TRPC4/mu-opioid, Fluo-4 calcium, dose response (AID 434942).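 Also: potency of inhibitors blocking the TRPC4 calcium response.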 In kind it is functional.

For data set [14], the target named is T5, Short transient receptor potential channel 4. The experiment in a line: SAR Analysis for the identification of selective inhibits of the transient receptor potential cation channel C4 (TRPC4): Automated Electrophysiology. [Related pubchem assays (depositor defined):AID2256]. In kind it is functional.
A further data set deals with Cytochrome P450 2D6 (Homo sapiens, UniProt P10635).
Data set [15] can be described thus: Trypanosoma cruzi growth suppression in host cells – NIH3T3 host cells, beta-gal luminescence, confirmation (AID 2044).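 Also: intracellular parasites grown in NIH/3T3 mouse fibroblasts as host cells; luminescent beta-galactosidase reporter signal from transgenic T. cruzi replicating inside host cells; inhibitors lower the luminescence signal.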 Type of data set: functional, cell-based.
Data set [16] can be described thus: NIH3T3 cell viability loss – ATP luminescence, mouse fibroblasts, counter-screen, dose response (AID 2010).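 Also: cells exposed to compound for about 90 hours before reading.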 Type of data set: functional, cell-based.
Data set [17] deals with Intestinal-type alkaline phosphatase (Mus musculus, UniProt P24822). In words: PubChem AID 488785. Type of data set: functional.
Data set [18] deals with T6, Alkaline phosphatase, tissue-nonspecific isozyme (Homo sapiens, UniProt P05186).
T6 sequence (P05186 whole entry): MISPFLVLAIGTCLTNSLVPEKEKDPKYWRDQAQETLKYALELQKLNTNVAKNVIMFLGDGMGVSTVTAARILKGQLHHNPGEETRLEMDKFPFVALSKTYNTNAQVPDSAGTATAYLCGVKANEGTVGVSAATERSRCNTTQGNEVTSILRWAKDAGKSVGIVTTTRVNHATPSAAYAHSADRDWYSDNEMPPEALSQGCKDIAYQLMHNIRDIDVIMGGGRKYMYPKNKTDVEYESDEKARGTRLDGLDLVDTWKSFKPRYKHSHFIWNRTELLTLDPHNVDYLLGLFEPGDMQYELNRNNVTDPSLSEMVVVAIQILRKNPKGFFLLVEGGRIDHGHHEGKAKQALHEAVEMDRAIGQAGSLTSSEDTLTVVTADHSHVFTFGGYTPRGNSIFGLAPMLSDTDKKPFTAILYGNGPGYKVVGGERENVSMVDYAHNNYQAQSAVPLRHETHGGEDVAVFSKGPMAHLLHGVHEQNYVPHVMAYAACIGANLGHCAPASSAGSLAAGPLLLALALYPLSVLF
The experiment in a line: TNAP enzyme inhibition by screening hits, dose response, selectivity assay for mouse IAP inhibitor project, biochemical, human TNAP, uHTS hits (AID 488906). Type of data set: functional.

Data set [19] has as its target Intestinal-type alkaline phosphatase (Homo sapiens, UniProt P09923). The experiment in a line: inhibition of human intestinal alkaline phosphatase – biochemical, dose response (AID 488876). In kind it is functional.
Another data set concerns the target Trypsin (Sus scrofa, UniProt P00761). The experiment in a line: trypsin protease activity blockade – biochemical, quenched peptide fluorescence, cherry-pick, selectivity assay for Rce1 protease inhibitor project, dose response (AID 488789).
For data set [20], the target named is FAD-linked sulfhydryl oxidase ALR (Homo sapiens, UniProt P55789). The experiment in a line: ALR-catalysed DTT oxidation blockers – biochemical, H2O2 detection, luminescence, cherry-pick, dose response (AID 493248).
Sequence of FAD-linked sulfhydryl oxidase ALR (P55789 whole entry): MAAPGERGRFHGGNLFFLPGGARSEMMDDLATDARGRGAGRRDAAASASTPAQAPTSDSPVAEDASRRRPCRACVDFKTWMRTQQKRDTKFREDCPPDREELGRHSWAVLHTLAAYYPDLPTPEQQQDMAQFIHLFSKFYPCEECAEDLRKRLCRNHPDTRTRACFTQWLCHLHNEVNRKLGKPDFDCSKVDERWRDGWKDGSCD
Another data set has as its target CAAX prenyl protease 1 (Saccharomyces cerevisiae S288c, UniProt P47154). In words: yeast CAAX protease Ste24 inhibition – biochemical, S. cerevisiae, plate reader, cherry-pick, dose response (AID 488815).
The target in a further data set is CAAX prenyl protease 2 (Homo sapiens, UniProt Q9Y256). The experiment in a line: inhibition of Ras-converting CAAX protease Rce1 – biochemical, yeast membranes, quenched-peptide fluorescence, cherry-pick, dose response (AID 588849).
Data set [21] has as its target T7, Dual specificity protein phosphatase 3 (Homo sapiens, UniProt P51452). The experiment in a line: VHR1 phosphatase inhibitors, primary screen, biochemical, absorbance, uHTS (AID 1654).
In data set [22] the target is T8, Voltage-gated N-type calcium channel alpha-1B subunit/Amyloid beta A4 precursor protein-binding family A member 1 (Homo sapiens, UniProt Q00975+Q02410). In kind it is protein assay.
T8 sequence (Q00975 whole entry): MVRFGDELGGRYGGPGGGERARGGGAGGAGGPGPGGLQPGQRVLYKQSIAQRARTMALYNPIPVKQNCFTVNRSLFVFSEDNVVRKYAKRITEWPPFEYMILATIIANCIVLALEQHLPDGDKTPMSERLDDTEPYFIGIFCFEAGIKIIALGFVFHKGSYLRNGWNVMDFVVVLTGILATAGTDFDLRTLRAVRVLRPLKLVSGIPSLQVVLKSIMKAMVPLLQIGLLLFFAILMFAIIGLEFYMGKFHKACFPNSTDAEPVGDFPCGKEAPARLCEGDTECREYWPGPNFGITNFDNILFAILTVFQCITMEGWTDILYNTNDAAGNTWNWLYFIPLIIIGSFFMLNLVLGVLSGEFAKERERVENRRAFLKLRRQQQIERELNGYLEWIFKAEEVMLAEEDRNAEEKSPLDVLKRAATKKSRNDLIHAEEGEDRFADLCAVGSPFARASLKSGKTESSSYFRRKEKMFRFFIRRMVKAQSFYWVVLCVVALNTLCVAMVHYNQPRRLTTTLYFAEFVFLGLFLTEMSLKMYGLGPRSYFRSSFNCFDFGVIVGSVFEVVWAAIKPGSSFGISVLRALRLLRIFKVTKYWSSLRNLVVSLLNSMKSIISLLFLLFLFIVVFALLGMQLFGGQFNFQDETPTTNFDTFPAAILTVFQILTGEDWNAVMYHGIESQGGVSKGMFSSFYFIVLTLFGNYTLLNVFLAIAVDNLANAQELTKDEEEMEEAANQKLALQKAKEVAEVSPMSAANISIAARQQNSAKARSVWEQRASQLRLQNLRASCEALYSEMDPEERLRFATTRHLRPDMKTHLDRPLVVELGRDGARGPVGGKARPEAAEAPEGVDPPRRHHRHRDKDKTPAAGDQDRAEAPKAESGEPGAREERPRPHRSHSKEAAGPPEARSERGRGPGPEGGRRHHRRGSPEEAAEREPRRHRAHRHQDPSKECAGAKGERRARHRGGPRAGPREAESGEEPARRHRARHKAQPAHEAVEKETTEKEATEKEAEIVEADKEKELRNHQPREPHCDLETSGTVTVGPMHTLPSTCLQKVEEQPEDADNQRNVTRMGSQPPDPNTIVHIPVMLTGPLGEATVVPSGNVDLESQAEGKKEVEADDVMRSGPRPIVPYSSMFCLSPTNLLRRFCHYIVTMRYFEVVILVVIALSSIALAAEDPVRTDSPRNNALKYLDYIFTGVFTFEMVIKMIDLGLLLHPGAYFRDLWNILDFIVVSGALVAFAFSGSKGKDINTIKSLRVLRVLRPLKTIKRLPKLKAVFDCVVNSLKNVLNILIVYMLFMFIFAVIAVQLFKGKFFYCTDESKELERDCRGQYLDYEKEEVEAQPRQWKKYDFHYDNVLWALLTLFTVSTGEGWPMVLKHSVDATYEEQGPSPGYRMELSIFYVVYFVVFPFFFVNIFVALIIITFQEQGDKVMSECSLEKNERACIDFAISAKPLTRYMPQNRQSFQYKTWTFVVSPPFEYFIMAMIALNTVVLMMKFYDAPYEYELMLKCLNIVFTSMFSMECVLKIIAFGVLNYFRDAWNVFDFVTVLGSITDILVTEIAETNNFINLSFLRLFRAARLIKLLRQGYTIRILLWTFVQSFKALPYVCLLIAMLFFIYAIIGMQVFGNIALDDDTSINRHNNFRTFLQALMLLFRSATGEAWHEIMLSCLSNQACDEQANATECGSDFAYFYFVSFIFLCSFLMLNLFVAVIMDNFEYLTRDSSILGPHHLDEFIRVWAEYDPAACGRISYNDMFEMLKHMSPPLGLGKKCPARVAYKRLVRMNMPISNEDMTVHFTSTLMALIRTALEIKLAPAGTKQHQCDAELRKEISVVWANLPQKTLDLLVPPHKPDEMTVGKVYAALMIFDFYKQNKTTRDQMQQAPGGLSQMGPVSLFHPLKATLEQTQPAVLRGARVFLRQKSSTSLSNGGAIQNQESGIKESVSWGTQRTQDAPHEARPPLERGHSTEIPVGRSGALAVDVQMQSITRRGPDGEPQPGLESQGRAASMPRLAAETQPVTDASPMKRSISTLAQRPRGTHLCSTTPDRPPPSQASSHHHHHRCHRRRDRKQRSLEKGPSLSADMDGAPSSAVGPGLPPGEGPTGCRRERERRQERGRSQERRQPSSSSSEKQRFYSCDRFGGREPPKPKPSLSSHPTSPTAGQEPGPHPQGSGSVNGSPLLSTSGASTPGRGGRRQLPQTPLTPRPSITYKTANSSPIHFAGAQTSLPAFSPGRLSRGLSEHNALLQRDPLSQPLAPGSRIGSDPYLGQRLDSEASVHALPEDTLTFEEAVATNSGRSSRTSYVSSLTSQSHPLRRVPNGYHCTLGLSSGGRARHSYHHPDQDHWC
T8 sequence (Q02410 whole entry): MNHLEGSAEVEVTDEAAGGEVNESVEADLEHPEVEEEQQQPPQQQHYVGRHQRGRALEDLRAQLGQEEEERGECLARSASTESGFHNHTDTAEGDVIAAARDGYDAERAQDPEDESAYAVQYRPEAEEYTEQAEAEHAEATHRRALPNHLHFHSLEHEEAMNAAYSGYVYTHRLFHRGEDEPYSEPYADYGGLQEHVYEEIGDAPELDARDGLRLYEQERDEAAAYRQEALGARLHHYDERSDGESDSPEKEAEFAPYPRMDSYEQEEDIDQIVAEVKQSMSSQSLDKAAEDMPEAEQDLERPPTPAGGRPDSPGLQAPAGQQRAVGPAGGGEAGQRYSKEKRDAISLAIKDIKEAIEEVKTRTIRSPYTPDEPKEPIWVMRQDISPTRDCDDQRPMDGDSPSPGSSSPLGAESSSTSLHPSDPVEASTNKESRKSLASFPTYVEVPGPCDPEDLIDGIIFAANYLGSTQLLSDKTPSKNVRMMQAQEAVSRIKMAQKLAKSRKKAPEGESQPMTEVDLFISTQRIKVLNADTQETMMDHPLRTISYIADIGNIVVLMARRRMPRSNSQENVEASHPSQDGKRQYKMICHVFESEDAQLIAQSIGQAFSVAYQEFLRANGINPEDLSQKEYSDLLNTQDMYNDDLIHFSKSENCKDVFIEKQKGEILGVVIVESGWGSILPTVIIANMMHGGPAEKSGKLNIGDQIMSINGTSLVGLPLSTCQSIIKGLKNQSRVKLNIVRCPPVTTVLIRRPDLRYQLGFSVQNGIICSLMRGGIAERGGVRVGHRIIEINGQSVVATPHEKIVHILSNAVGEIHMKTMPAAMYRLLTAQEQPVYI
The target of data set [23] is T8, Voltage-gated N-type calcium channel alpha-1B subunit/Amyloid beta A4 precursor protein-binding family A member 1. In kind it is protein assay. This is another data set of the same source.
The target in data set [24] is T7, Dual specificity protein phosphatase 3. The experiment in a line: VHR1 phosphatase inhibitors, biochemical (AID 1878).
Data set [25] addresses T9, Dual specificity protein phosphatase 6 (Rattus norvegicus, UniProt Q64346).
T9 sequence (Q64346 whole entry): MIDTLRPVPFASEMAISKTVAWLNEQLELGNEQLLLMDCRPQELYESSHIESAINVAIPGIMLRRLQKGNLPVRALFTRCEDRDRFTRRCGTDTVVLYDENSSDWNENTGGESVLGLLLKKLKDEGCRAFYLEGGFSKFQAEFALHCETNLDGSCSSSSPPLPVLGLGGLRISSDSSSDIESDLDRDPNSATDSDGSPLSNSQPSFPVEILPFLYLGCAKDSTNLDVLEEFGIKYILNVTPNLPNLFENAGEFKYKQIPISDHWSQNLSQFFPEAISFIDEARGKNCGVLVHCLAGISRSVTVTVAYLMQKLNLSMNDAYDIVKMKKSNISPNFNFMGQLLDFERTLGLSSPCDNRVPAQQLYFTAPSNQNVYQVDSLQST
The experiment in a line: inhibition of rat DUSP6 enzyme activity – biochemical, in vitro, primary screen (AID 425).

Data set [26] has as its target T10, Carboxy-terminal domain RNA polymerase II polypeptide A small phosphatase 1 (Homo sapiens, UniProt Q9GZU7).
T10 sequence (Q9GZU7 whole entry): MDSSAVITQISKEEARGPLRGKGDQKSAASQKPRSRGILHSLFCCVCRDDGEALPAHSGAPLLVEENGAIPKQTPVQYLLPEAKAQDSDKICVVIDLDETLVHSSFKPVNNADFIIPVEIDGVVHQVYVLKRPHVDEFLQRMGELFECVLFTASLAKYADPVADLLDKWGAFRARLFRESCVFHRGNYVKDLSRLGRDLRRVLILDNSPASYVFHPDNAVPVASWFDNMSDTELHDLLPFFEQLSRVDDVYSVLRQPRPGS
The experiment in a line: CTDSP1 inhibitors, concentration-response, biochemical, absorbance readout, ultra-high-throughput screen actives (AID 540297). In kind it is functional.

T2 sequence (P07550 whole entry): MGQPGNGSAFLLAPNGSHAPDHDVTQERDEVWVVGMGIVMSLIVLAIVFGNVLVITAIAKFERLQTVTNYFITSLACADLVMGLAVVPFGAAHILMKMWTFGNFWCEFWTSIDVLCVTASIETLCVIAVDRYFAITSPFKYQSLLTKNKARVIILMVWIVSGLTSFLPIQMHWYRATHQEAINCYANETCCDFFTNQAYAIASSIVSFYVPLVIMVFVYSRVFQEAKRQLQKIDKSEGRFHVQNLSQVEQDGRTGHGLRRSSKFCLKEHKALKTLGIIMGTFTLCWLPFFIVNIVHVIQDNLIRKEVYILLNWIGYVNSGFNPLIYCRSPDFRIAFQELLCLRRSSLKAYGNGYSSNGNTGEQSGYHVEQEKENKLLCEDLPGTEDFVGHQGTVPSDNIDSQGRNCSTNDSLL
T4 sequence (P41145 whole entry): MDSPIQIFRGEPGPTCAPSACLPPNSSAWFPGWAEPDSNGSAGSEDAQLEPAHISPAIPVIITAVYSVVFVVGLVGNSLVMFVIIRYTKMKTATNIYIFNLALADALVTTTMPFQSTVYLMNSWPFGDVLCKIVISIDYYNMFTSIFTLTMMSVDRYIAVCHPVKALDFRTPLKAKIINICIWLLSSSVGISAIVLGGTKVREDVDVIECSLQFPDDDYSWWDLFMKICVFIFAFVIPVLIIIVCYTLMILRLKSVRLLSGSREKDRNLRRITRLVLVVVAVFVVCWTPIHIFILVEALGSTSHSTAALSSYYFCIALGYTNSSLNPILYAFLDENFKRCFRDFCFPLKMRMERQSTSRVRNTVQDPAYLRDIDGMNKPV
T7 sequence (P51452 whole entry): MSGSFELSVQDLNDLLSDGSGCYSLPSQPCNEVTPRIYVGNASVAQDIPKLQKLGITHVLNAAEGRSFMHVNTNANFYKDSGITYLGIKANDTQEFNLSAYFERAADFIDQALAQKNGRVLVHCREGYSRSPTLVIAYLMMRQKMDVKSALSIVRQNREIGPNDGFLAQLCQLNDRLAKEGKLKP

For the compound `Cc1ccccc1N1CCN(c2ncnc3c2cnn3Cc2ccc(Cl)cc2)CC1`, the values for the IC50 in [1], in [2] and in data set [6] were 615 nM (active), > 32 µM (not active) and > 32 µM (inactive), respectively. Moreover, in data set [3], the CC50 is > 40 µM (active). Besides, the EC50 in [4] is 42.2 µM (active); in [5], 54.1 µM (active); in [7], 4.09 µM (active); in data set [8], 1.14 µM (active).

On to `O=C(c1ccc([N+](=O)[O-])cc1)N(Cc1ccc(Br)cc1)N1C(=O)CCCC1=O`, for which, in data set [9], the IC50 was > 32 µM (inactive). The EC50 at Mu-type opioid receptor was > 32 µM (inactive); in [10], > 32 µM (inactive); in data set [11] it was above 35 µM; in [12], 3.55 µM.

In the case of `N=C(NC1CCCCC1)c1ccc(Cl)cc1`, the half-maximal effective concentration (EC50) in data set [13] was 1.68 µM (active). For the same compound, in [14], the IC50 was 4.56 µM (active).

With `Cc1cc2c(s1)CCCCC(=O)N2`, the AC50 result at Cytochrome P450 2D6 is given as “inconclusive”.

Consider `Cc1nn(C(C)C)c(C)c1CN1CCC(C(=O)Nc2cccc(-c3cccc(F)c3)c2)CC1`, for which the EC50 in data set [15] was 1.15 µM (active); in [16], 30.4 µM (active). The half-maximal inhibitory concentration (IC50) in [17] is 7.53 µM (active); in data set [18], 53 µM (active); in data set [19] it was 12 µM (active).

With `Oc1ccc(-c2cn3cc(C(F)(F)F)ccc3n2)cc1`, the AC50 on Trypsin was 11.1 µM (active); in data set [20], 3.4 µM (active); on CAAX prenyl protease 1 it was 8.29 µM (active); at CAAX prenyl protease 2, 10.5 µM (active).

Take `COc1ccc(NC(=O)c2cc3c(COC(C)=O)cnc(C)c3o/c2=N\c2cccc(C(=O)O)c2)c(OC)c1`: the IC50 in data set [21] is 4.9 µM (active); in data set [22] it was 3.13 µM (active); in data set [23], > 50 µM (inactive); in [24] it was 1.53 µM (active); in [25], > 158 µM (not active); in [26], 737 nM (active).
